Where “and” joins values, the source holds several entries; their conditions need not be identical. Equal entries are not always repeated.
Tested on: patients with relapsed/refractory T Cell Lymphoma
Assay: Safety assessment (adverse events per CTCAE v4.03, DLT/MTD) in phase I/Ib study
Type: in vivo, human
Protocol: Protocol defined hematological or non-hematological toxicity was considered dose-limiting if it occurred during the first cycle (within the first 28 d) and was considered related to Tenalisib. Hematological DLTs was defined as Grade 4 anemia; Grade 4 neutropenia for >7 days, or Grade ≥3 febrile neutropenia with fever >38.5 °C [101 °F]; Grade 4 thrombocytopenia for >7 days, or Grade ≥3 thrombocytopenia associated with Grade >2 bleeding.
Safety assessment included adverse event (AE) and serious adverse events (SAE) as per Common Terminology Criteria for Adverse Events (CTCAE), Version 4.03. During dose escalation, safety assessments were performed at weekly intervals during Cycle 1 and Cycle 2 and at two weekly intervals during Cycle 3 and 4. After completion of Cycle 4, safety assessments were performed on Day 1 of each subsequent cycle. In dose expansion phase, all safety assessments were performed on Day 1 of each cycle.

[1] = Relationship-all, Dose Expansion (N = 39)
[2] = Relationship-all, Total (N = 58)

What does the source list for `CC[C@H](Nc1ncnc2[nH]cnc12)c1oc2ccccc2c(=O)c1-c1cccc(F)c1` [Tenalisib]?
Pyrexia: patients with event [1]: 9 (23.1%) n (%); Rash: count of events [1]: 6; Rash: patients with event [1]: 3 (7.7%) n (%); Tachycardia: count of events [1]: 3; Tachycardia: patients with event [1]: 3 (7.7%) n (%); Vomiting: count of events [1]: 6; Vomiting: patients with event [1]: 5 (12.8%) n (%); Abdominal pain: count of events [2]: 9; Abdominal pain: patients with event [2]: 8 (13.8%) n (%); Alanine aminotransferase increased: count of events [2]: 33; Alanine aminotransferase increased: patients with event [2]: 20 (34.5%) n (%); Anemia: count of events [2]: 16; Anemia: patients with event [2]: 9 (15.5%) n (%); Aspartate aminotransferase increased: count of events [2]: 37; Aspartate aminotransferase increased: patients with event [2]: 21 (36.2%) n (%); Blood creatinine increased: count of events [2]: 7; Blood creatinine increased: patients with event [2]: 7 (12.1%) n (%); Blood thyroid stimulating hormone increased: count of events [2]: 7; Blood thyroid stimulating hormone increased: patients with event [2]: 6 (10.3%) n (%); Constipation: count of events [2]: 10; Constipation: patients with event [2]: 9 (15.5%) n (%); Cough: count of events [2]: 16; Cough: patients with event [2]: 13 (22.4%) n (%); Decreased appetite: count of events [2]: 13; Decreased appetite: patients with event [2]: 12 (20.7%) n (%); Dehydration: count of events [2]: 18; Dehydration: patients with event [2]: 13 (22.4%) n (%); Diarrhea: count of events [2]: 25; Diarrhea: patients with event [2]: 19 (32.8%) n (%); Dizziness: count of events [2]: 12; Dizziness: patients with event [2]: 10 (17.2%) n (%); Dry skin: count of events [2]: 8; Dry skin: patients with event [2]: 7 (12.1%) n (%); Dyspnea: count of events [2]: 7; Dyspnea: patients with event [2]: 7 (12.1%) n (%); Fatigue: count of events [2]: 27; Fatigue: patients with event [2]: 26 (45%) n (%) and 26 (44.8%) n (%); Gamma-glutamyl transferase increased: count of events [2]: 11; Gamma-glutamyl transferase increased: patients with event [2]: 8 (13.8%) n (%); Grade 3/4 Alanine aminotransferase increased: count of events [2]: 12; Grade 3/4 Alanine aminotransferase increased: patients with event [2]: 11 (19.0%) n (%); Grade 3/4 Anemia: count of events [2]: 8; Grade 3/4 Anemia: patients with event [2]: 5 (8.6%) n (%); Grade 3/4 Aspartate aminotransferase increased: count of events [2]: 12; Grade 3/4 Aspartate aminotransferase increased: patients with event [2]: 11 (19.0%) n (%); Grade 3/4 Fatigue: count of events [2]: 4; Grade 3/4 Fatigue: patients with event [2]: 3 (5.2%) n (%); Grade 3/4 Hyponatremia: count of events [2]: 4; Grade 3/4 Hyponatremia: patients with event [2]: 4 (6.9%) n (%); Grade 3/4 Neutropenia: count of events [2]: 4; Grade 3/4 Neutropenia: patients with event [2]: 4 (6.9%) n (%); Grade 3/4 Thrombocytopenia: count of events [2]: 3; Grade 3/4 Thrombocytopenia: patients with event [2]: 3 (5.2%) n (%); Headache: count of events [2]: 13; Headache: patients with event [2]: 10 (17.2%) n (%); Hypokalemia: count of events [2]: 10; Hypokalemia: patients with event [2]: 7 (12.1%) n (%); Hyponatremia: count of events [2]: 9; Hyponatremia: patients with event [2]: 8 (13.8%) n (%); Insomnia: count of events [2]: 7; Insomnia: patients with event [2]: 6 (10.3%) n (%); Muscle spasms: count of events [2]: 10; Muscle spasms: patients with event [2]: 9 (15.5%) n (%); Nausea: count of events [2]: 16; Nausea: patients with event [2]: 15 (25.9%) n (%); Pruritus: count of events [2]: 10; Pruritus: patients with event [2]: 9 (15.5%) n (%); Psychiatric disorders: count of events [2]: 18; Psychiatric disorders: patients with event [2]: 11 (19.0%) n (%); Pyrexia: count of events [2]: 21; Pyrexia: patients with event [2]: 13 (22.4%) n (%); Rash: count of events [2]: 10; Rash: patients with event [2]: 6 (10.3%) n (%); Tachycardia: count of events [2]: 9; Tachycardia: patients with event [2]: 8 (13.8%) n (%); Vomiting: count of events [2]: 11; Vomiting: patients with event [2]: 9 (15.5%) n (%); Fatigue, most frequently reported TEAE (all patients): 45%; Transaminase elevations, most frequently reported related TEAE (all patients): 33%; Late onset toxicities like colitis, pneumonitis, and opportunistic infections (also in patients treated for more than six months): not seen; Alanine aminotransferase increased: count of events (human, in vivo): 13; Alanine aminotransferase increased: patients with event (human, in vivo): 6 (31.6%) n (%); Anemia, Grade 3 TEAE (human, in vivo): 8.6%; Anemia: count of events (human, in vivo): 1; Anemia: patients with event (human, in vivo): 1 (5.3%) n (%); Aspartate aminotransferase increased: count of events (human, in vivo): 15; Aspartate aminotransferase increased: patients with event (human, in vivo): 6 (31.6%) n (%); Blood alkaline phosphatase increased: count of events (human, in vivo): 1; Blood alkaline phosphatase increased: patients with event (human, in vivo): 1 (5.3%) n (%); Blood creatinine increased: patients with event (human, in vivo): 1 (5.3%) n (%); Blood thyroid stimulating hormone increased: count of events (human, in vivo): 2; Blood thyroid stimulating hormone increased: patients with event (human, in vivo): 2 (10.5%) n (%); Constipation: count of events (human, in vivo): 5; Constipation: patients with event (human, in vivo): 4 (21.1%) n (%); Cough: count of events (human, in vivo): 7; Cough: patients with event (human, in vivo): 6 (31.6%) n (%); Decreased appetite: count of events (human, in vivo): 5; Decreased appetite: patients with event (human, in vivo): 5 (26.3%) n (%); Discontinuation due to adverse events (human, in vivo): 9%; Dry skin: count of events (human, in vivo): 2; Dry skin: patients with event (human, in vivo): 2 (10.5%) n (%); Dyspepsia: count of events (human, in vivo): 1; Dyspepsia: patients with event (human, in vivo): 1 (5.3%) n (%); Dyspnea: count of events (human, in vivo): 5; Dyspnea: patients with event (human, in vivo): 5 (26.3%) n (%); Erythema: count of events (human, in vivo): 1; Erythema: patients with event (human, in vivo): 1 (5.3%) n (%); Gamma-glutamyl transferase increased: count of events (human, in vivo): 2; Gamma-glutamyl transferase increased: patients with event (human, in vivo): 2 (10.5%) n (%); Gamma-glutamyltransferase increased: count of events (human, in vivo): 2; Gamma-glutamyltransferase increased: patients with event (human, in vivo): 2 (10.5%) n (%); Grade 3/4 Alanine aminotransferase increased: count of events (human, in vivo): 7; Grade 3/4 Alanine aminotransferase increased: patients with event (human, in vivo): 6 (15.4%) n (%); Grade 3/4 Anemia: count of events (human, in vivo): 6; Grade 3/4 Anemia: patients with event (human, in vivo): 3 (7.7%) n (%); Grade 3/4 Aspartate aminotransferase increased: count of events (human, in vivo): 8; Grade 3/4 Aspartate aminotransferase increased: patients with event (human, in vivo): 7 (17.9%) n (%); Grade 3/4 Fatigue: count of events (human, in vivo): 3; Grade 3/4 Fatigue: patients with event (human, in vivo): 2 (5.1%) n (%); Grade 3/4 Hyponatremia: count of events (human, in vivo): 2; Grade 3/4 Hyponatremia: patients with event (human, in vivo): 2 (5.1%) n (%); Grade 3/4 Neutropenia: count of events (human, in vivo): 2; Grade 3/4 Neutropenia: patients with event (human, in vivo): 2 (5.1%) n (%); Grade 3/4 Thrombocytopenia: count of events (human, in vivo): 2; Grade 3/4 Thrombocytopenia: patients with event (human, in vivo): 2 (5.1%) n (%); Headache: count of events (human, in vivo): 4; Headache: patients with event (human, in vivo): 3 (15.8%) n (%); Hypokalemia: count of events (human, in vivo): 5; Hypokalemia: patients with event (human, in vivo): 4 (21.1%) n (%); Hyponatremia, Grade 3 TEAE (human, in vivo): 6.9%; Hyponatremia: count of events (human, in vivo): 4; Hyponatremia: patients with event (human, in vivo): 4 (21.1%) n (%); Insomnia: count of events (human, in vivo): 3; Insomnia: patients with event (human, in vivo): 3 (15.8%) n (%); Neutropenia, Grade 3 TEAE (human, in vivo): 6.9%; Neutropenia: count of events (human, in vivo): 2; Number of related ≥Grade 3 AEs (human, in vivo): 12; Patients discontinued because of TEAEs (human, in vivo): 14%; Patients with SAEs (human, in vivo): 22 (38%) n (%); Patients with at least one TEAE (human, in vivo): 57 (98%) n (%); Patients with related AEs (human, in vivo): 18 (64%) n (%); Patients with related Grade 4 TEAEs (human, in vivo): 5.2%; Patients with related ≥Grade 3 AEs (human, in vivo): 9 (32%) n (%); Pruritus: count of events (human, in vivo): 5; Pruritus: patients with event (human, in vivo): 4 (21.1%) n (%); Psychiatric disorders: count of events (human, in vivo): 6; Psychiatric disorders: patients with event (human, in vivo): 4 (21.1%) n (%); Pyrexia: count of events (human, in vivo): 4; Pyrexia: patients with event (human, in vivo): 4 (21.1%) n (%); Rash: count of events (human, in vivo): 4; Rash: patients with event (human, in vivo): 3 (15.8%) n (%); SAEs gastrointestinal disorders, patients (human, in vivo): 9%; SAEs related to infections, patients (human, in vivo): 16%; Tachycardia: count of events (human, in vivo): 6; Tachycardia: patients with event (human, in vivo): 5 (26.3%) n (%); Transaminase elevation, related Grade ≥3 TEAE (human, in vivo): 21%; Deaths related to drug (in vivo): none of them were related to Tenalisib; Dose-limiting toxicities (DLT) (in vivo): no DLTs; Fatal outcome of related TEAEs (in vivo): None of the related TEAEs led to a fatal outcome; Grade 4 related TEAEs (in vivo): two events of ALT increase and one event of sepsis; Number of SAEs assessed to be related (in vivo): six; Number of SAEs reported (in vivo): Thirty-seven; Deaths reported in the study (seven deaths): 12%

— publication PMC7463651, “Phase I/Ib Study of Tenalisib (RP6530), a Dual PI3K δ/γ Inhibitor in Patients with Relapsed/Refractory T-Cell Lymphoma” (Cancers, 2020)
